For 62 compounds, melting point results are on record in a melting point compilation (Tetko et al.; mined from patent text by program, amines drawn as free bases though some values may be those of a salt).

As to `CSc1nc2cc(C(F)(F)F)ccc2n1NC(C)=O`, the melting point lay in the range of 175 to 178 °C.

The compound `CCN(C(=O)N1CCN(c2cc(Cl)cc(Cl)c2)CC1)c1nc2ccccc2nc1OC` displayed a melting point of 146 to 148 °C. `C=CC1OC(=O)N2c3ccc(O)cc3CCC12` (configuration not stated) displayed a melting point of 250 °C. Regarding `CC(c1ccc(CCn2c(=O)[nH]c3cc(-c4ccc(F)cc4)sc3c2=O)cc1)N1CCCC1` (configuration not stated), the melting point is 260 to 264 °C. As for `NS(=O)(=O)c1ccc(-c2cc(F)c(F)cc2-c2ccc3c(c2)OCO3)cc1`, the melting point was 142 to 143 °C. `Cc1nnc2n1-c1sc(C#CCN3C(=O)C(=O)c4ccccc43)cc1C(c1ccccc1Cl)=NC2` had a melting point of 185 to 190 °C. In the case of `NCCCc1c[nH]c(-c2ccc(F)cc2)c1-c1ccncc1`, the melting point fell in the range of 198 to 199 °C.

Compound `O=C(NC1CN(Cc2ccccc2)CCN(Cc2ccccc2)C1)c1n[nH]c2ccccc12` gave a melting point of 115 to 116 °C. As for `Cc1cc(CC(=O)O)ccc1NC(=O)Nc1ccccc1C(F)(F)F`, the figure is 262 to 263 °C. As for `COCc1cccc(CCC(O)c2ccccc2)c1NC(=O)CC1c2ccccc2Oc2ccccc21` (configuration not stated), the figure is 144 to 146 °C; as for `Cc1ccncc1-c1cccc(OC2SCC(O)C(O)C2O)c1` (configuration not stated), 143 °C. As for `CCc1nc2c(N)nc3ccccc3c2n1CCCCNC(=O)c1ccccc1`, the figure is 203 to 206 °C; as for `CCOCc1nc2c(N)nc3ccccc3c2n1CC1(NC(=O)OC(C)(C)C)CCCCC1`, 82 to 92 °C; as for `CCCCCCSc1[nH]c2cccc3c2c1CC1C3C=C(C)CN1C` (configuration not stated), 199 to 201 °C. In the case of `COC(=O)c1ccc(-c2nnc(-c3ccc(C(F)(F)F)cc3)o2)c([N+](=O)[O-])c1`, the melting point lay in the range of 173 to 174 °C. Under `CCOC(=O)C1=C(N)NC(CF)=C(C(=O)OCC)C1c1cccc([N+](=O)[O-])c1` (configuration not stated) stands 177 to 178 °C; under `CNC(=N[N+](=O)[O-])N(Cc1cnc(Cl)s1)C(=O)N(C)C`, 140 °C; under `CCOC(=O)C1=C(C)NC2=C(C(=O)OC2)C1c1cccs1` (configuration not stated), 232 °C. Under `CC(=O)N[C@H](CO)C(=O)NCc1ccc(N=[N+]=[N-])cc1` stands 161 to 163 °C; under `CN(CCCC(=O)Nc1ccc2[nH]ncc2c1)Cc1ccccc1`, 115 to 117 °C; under `O=C(Oc1ccc(Oc2ccccc2)cc1)N1CCC(OC(=O)N2CCC(OC(=O)N3CCC4(CCCC4)CC3)CC2)CC1`, 48 to 63 °C. `O=C1CC2(C(=O)N1)C(=O)N1c3ccccc3Sc3cccc2c31` (configuration not stated) yielded a melting point of over 300 °C. Under `CCOCN1C(C)=C(C(=O)O)C(c2cccc([N+](=O)[O-])c2)C(C(=O)OC)=C1C` (single isomer, unassigned; (-)) stands 134 to 135 °C; under `N#CC1(Nc2ccc(Cl)cc2)CCN(C(=O)c2cc(C(F)(F)F)cc(C(F)(F)F)c2)CC1`, 176 to 180 °C; under `C=CC(C)n1ncc(-c2ccc(S(C)(=O)=O)cc2)c(-c2ccc(F)cc2)c1=O` (configuration not stated), 140 to 142 °C. In the case of `O=C(O)C=CC(=O)NCCC(F)=C(F)F`, the melting point was in the range of 64 to 66 °C. Compound `CCCCOC(=O)C=Nc1cc(Cl)ccc1C(=O)O` gave a melting point of 130 °C.

Compound `COc1ccc(Oc2nc(Oc3ccc(OC)c(F)c3)nc(Oc3ccc(OC)c(F)c3)n2)cc1F` registered a melting point of over 210 °C. Regarding `COc1ccc(Oc2c(C)cc([N+](=O)[O-])cc2C)cc1Cc1ccc(F)cc1`, the melting point was 105 to 110 °C. Under `CCOC(=O)c1cc2cc(SC(=O)N(C)C)ccc2oc1=O` stands 133 to 134 °C. As for `OCC1OC(n2cnc3c(NNC4CCSc5ccccc54)ncnc32)C(O)C1O` (configuration not stated), the figure is 105 to 107 °C.

In turn, `CC(C)C(=O)N[C@@H](CSC(=O)C(C)C)C(=O)NCCSC(=O)C(C)C` gave a melting point of 94 to 96 °C. `COc1cc2c(N)nc(N3CCN(C(=O)C4COc5ccccc5O4)CC3)nc2c(OC)c1OC` (configuration not stated) gave a melting point of 269 to 271 °C. As to `O=C1Nc2ccc(Br)cc2C12CCNCC2`, the melting point lay within 256 to 258 °C. As for `CSc1ccc2nc(-c3cccc(C)c3)c(-c3ccnc(NC4CCCCC4)c3)n2n1`, the figure is 150 to 151 °C; as for `O=C1c2cccc3cccc(c23)N1CCCl`, 136 °C; as for `c1ccc(-c2ccnc(Nc3cccc(-n4ccnc4)c3)n2)nc1`, 210 to 211 °C.

`Cc1cc(C)cc(-c2cc3cnc(N)nc3nc2NC(=O)NC(C)(C)C)c1` yielded a melting point of 180 to 182 °C.

In turn, `CCn1c(N)c(-c2ncc[nH]2)c(=O)c2ccc(C#CC(O)(c3ccccc3)C(F)(F)F)nc21` (configuration not stated) had a melting point of 260 °C. Compound `CC(C)[Si](Oc1ccc([C@H](O)[C@H](C)N2CCC(O)(c3ccccc3)CC2)cc1)(C(C)C)C(C)C` (relative stereo) displayed a melting point of 148 to 151 °C. Under `COC(=O)c1nc(C)n2c1CN=C(c1ccccc1Cl)c1cc(Cl)ccc1-2` stands 225 to 227 °C; under `CCOC(=O)c1ccc(NC(=O)CC(CNS(=O)(=O)c2ccc(C)cc2)c2ccccc2)cc1` (configuration not stated), 135 to 137 °C. As for `O=C(Nc1cc(F)cc(F)c1)c1cc(Br)ccc1O`, the figure is 259 to 261 °C; as for `C=CCc1c(O)ccc2c1CCC(=O)N2`, 236 to 239 °C; as for `O=c1c2cnccc2[nH]c2ccnn12`, over 300 °C. As for `CCCOC(=O)Nc1cn2nc(OCc3cc(C)ccc3C)ccc2n1`, the figure is 196 to 197 °C.

Compound `Cc1cc(C)n(CC(C)C)c(=O)c1C#N` showed a melting point of 126 to 128 °C.

For the compound `CCCCCCCCCCCCc1cc(Cc2ccccc2)on1`, the melting point lay within 41 to 43 °C. Under `COc1ccc(CNc2nnc(N3CCC(CO)CC3)c3ccc(Cl)cc23)cc1Cl` stands 128 to 131 °C; under `Cc1cc2c(cc1O)OCCC2=O`, 185 to 186 °C; under `CCOC(=O)c1c2n(c3cc(Cl)c(Cl)cc3c1=O)CCS2`, 255 to 257 °C. `O=[N+]([O-])c1cccc2ccc3nc(O)c(O)nc3c12` showed a melting point of over 300 °C.

In the case of `CCC1(C)CN(c2c(F)c(N)c3c(=O)c(C(=O)O)cn(C4CC4)c3c2OC)CCC1N` (configuration not stated), the melting point was determined as 210 °C. Under `Nc1ccc(C(=O)N2Cc3ccccc3Sc3ccccc32)cc1` stands 52 to 55 °C; under `O=C(OCc1ccccc1)C(CO)N(C(=O)Cc1ccccc1)C(=O)OCc1ccccc1` (configuration not stated), 59 to 60 °C. Take `CCON=C(c1ccccc1COc1cc(C)ccc1C)c1ccnn1C`: the melting point is 74 to 76 °C. As to `CC(C)n1nc(-c2c(-c3ccccc3)nn3ccc(OCc4cccnc4)cc23)ccc1=O`, the melting point was 145 to 146 °C. The compound `Cc1ccc(S(=O)(=O)Nc2onc(C)c2Br)cc1` returned a melting point of 169 to 172 °C. As to `CCCCCCCCCCCCCCCCCC(=O)Nc1cccc([N+](=O)[O-])c1`, the melting point was 75 to 76 °C. `CCCCCCCCCCCCCCCCOCC1OCCCC1=O` (configuration not stated) came in with a melting point of 42 to 43.5 °C. As for `OC1(C#Cc2cccc(Cl)c2)CCCNC1` (configuration not stated), the figure is 113 to 114 °C.

Compound `CCCc1nc2ccc(C#N)cc2n1Cc1ccccc1Cl` had a melting point of 124 to 126 °C.
